Results on four compounds are retold here after patent US20260335282A1, “NOVEL 3-ARYLIDENE-2-INDOLINONE DERIVATIVES FOR THERAPEUTIC USE” (ISTANBUL UNIVERSITESI REKTORLUGU, priority 2022, published 2026).

What is called IC50 is the concentration at which inhibition is half-maximal.

Read-outs that look alike come from different tables or passages of the source. Some results are limits rather than exact numbers.

Common to all, as to assay type: cell-based, human
Test [1] concerns MDA-MB-231 cells. The test can be described thus: MTT cytotoxicity, breast cancer cells MDA-MB-231. The settings on record: MTT, no * mark (incubation time not given). In short, it runs like this: (§1)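 Healthy HUVEC cells grew in DMEM, cancer lines in RPMI-1640 or DMEM with 10% FBS. After overnight attachment, compounds (0.1, 1, 5, 10 μM) act for 48 and/or 72 h before a 4 h MTT step and 570/630 nm reading; IC50 is taken from dose-response curves.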

The subject of test [2] is CAKI-1 cells. Description: MTT cytotoxicity, kidney cancer cells CAKI-1. The method, boiled down: as §1
Test [3] has as its system HT-29 cells. Description: MTT cytotoxicity, colon cancer cells HT-29. Particulars: MTT. In short, it runs like this: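 Cells were seeded at 5000 per well and treated next day with compound at 0.1, 1, 5 and 10 μM (final) for 48 and/or 72 h, with matched DMSO controls. MTT was added for 4 h and formazan was dissolved in DMSO and read at 570/630 nm. % viability against control gave IC50 from dose-response curves.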

In test [4] the test system is MIAPaCa-2 cells. The test can be described thus: Apoptosis/necrosis detection, Annexin V/PI flow cytometry, MiaPaca-2. Particulars: for necrosis compared to control: MiaPaca-2; for apoptosis (early and late) compared to control: MiaPaca-2, IC50 values. For orientation: In flow cytometry, cells or beads pass a laser one at a time.
Setting [5] is: read-out: IC50, MDA-MB-231 (breast).
Setting [6] is: no * mark (incubation time not specified).

For the compound `O=C1/C(=C\c2c[nH]c3ccccc23)c2ccccc2N1Cc1ccccc1` [Y1], the IC50 in test [1] (setting [5]) amounted to 9.82 µM; in test [2] (setting [6]), 3.38 µM; in test [3] (setting [6]), 1810 nM. For the same compound, the “necrosis compared to control” value in test [4] is on record as “did not cause necrosis”. Further, the “apoptosis (early and late) compared to control” value (“apoptosis … compared to control” below) in test [4] is on record as “increase in apoptosis at IC50 values was statistically significant”.

Take `Cc1ccc2c(c1)/C(=C/c1c[nH]c3ccccc13)C(=O)N2Cc1ccccc1` [Y3]: the IC50 in test [1] (Homo sapiens, MDA-MB-231, read-out: IC50, MDA-MB-231 (breast)) was 3.57 µM; in test [2] (Homo sapiens, CAKI-1, no * mark (incubation time not given)) it was 4.01 µM; in test [3] (Homo sapiens, HT-29, no * mark (incubation time not given)) it was 2430 nM. Also, the “necrosis compared to control” value in test [4] was “did not cause necrosis”. Also, in test [4], the “apoptosis … compared to control” value was “increase in apoptosis at IC50 values was statistically significant”.

Turning to `O=C1/C(=C\c2c[nH]c3ccccc23)c2cc(OC(F)(F)F)ccc2N1Cc1ccccc1` [Y4], the 50% inhibitory concentration (IC50) in test [1] (setting [5]) was > 10 µM; in test [2] (setting [6]), 3.79 µM; in test [3] (setting [6]), 1750 nM. Moreover, the “necrosis compared to control” value in test [4] is listed as “did not cause necrosis”. The “apoptosis … compared to control” value in test [4] was “increase in apoptosis at IC50 values was statistically significant”.

Regarding `Cc1ccc2c(c1)/C(=C/c1c[nH]c3ccccc13)C(=O)N2Cc1cccc(F)c1` [Y8], the IC50 was 7.36 µM in test [1] (setting [5]), 3.28 µM in test [2] (setting [6]) and 5000 nM in test [3] (setting [6]). In addition, the “necrosis compared to control” value in test [4] is given as “did not cause necrosis”. In test [4], the “apoptosis … compared to control” value is listed as “increase in apoptosis at IC50 values was statistically significant”.
